The values below come from EPA's ToxValDB 9.5 (doi:10.2903/j.efsa.2005.102r).

The subject of one data set is Anas platyrhynchos. Particulars: reproductive, duration: 5 days, oral, feed.
The test system of a further data set is Apis mellifera. Particulars: acute, duration: 48 hours, mortality.
The subject of a further data set is Canidae. The note with it: oral, Dog Other.
The next data set concerns Colinus virginianus. Particulars: oral, diet.
Another data set relates to Daphnia magna. Particulars: chronic/long-term; duration: 21 days.
In a further data set the test system is Folsomia candida. Particulars: chronic/long-term; duration: 28 days.
A further data set has as its system Gammarus pulex. The note with it: chronic/long-term; duration: 28 days.
A further data set concerns Pontoscolex corethrurus. The note with it: chronic/long-term; reproduction.
Another data set deals with Tagia sp. The note with it: acute; mortality.
Another data set concerns Aphidius rhopalosiphi. The data set is described as follows: LR50; higher = less toxic. Particulars: not reported; mortality.
In the next data set the test system is Typhlodromus pyri. The data set is described as follows: LR50; higher = less toxic. The note with it: not reported; mortality.
[1] abbreviates: acute, duration: 96 hours, mortality.

Values after ≈ are worked out from the molar mass of the structure shown. Some results are limits rather than exact numbers.

For `CO/N=C(/C1=NOCCO1)c1ccccc1Oc1ncnc(Oc2ccccc2Cl)c1F` [Fluoxastrobin], the NOEC in the data set with Anas platyrhynchos turned out to be 285 mg/kg-day; in the data set with Colinus virginianus (reproduction developmental, duration: 5 days) it was 151 mg/kg-day; in the data set on Daphnia magna, 0.18 mg/L; with Folsomia candida, 5 mg/kg; with Gammarus pulex it was 0.0316 mg/L; in the data set with Neomysis kadiakensis (chronic/long-term, duration: 28 days), 0.00061 mg/L. For the same compound, in the data set with Oncorhynchus mykiss (chronic/long-term, duration: 95 days, other), the NOEC was found to be 0.0286 mg/L. Also, the LC50 was greater than 2190 mg/kg-day in the data set with Anas platyrhynchos (mortality); greater than 966 mg/kg-day in the data set with Colinus virginianus (acute, duration: 5 days, mortality); 0.0604 µg/mL (≈ 0.132 µM) in the data set on Neomysis kadiakensis (setting [1]); 0.435 µg/mL (≈ 0.948 µM) in the data set on Oncorhynchus mykiss (setting [1]); greater than 500 mg/kg in the data set with Tagia sp.. Moreover, the LD50 is greater than 200 µg/piece in the data set on Apis mellifera (dermal); greater than 843 µg/piece in the data set on Apis mellifera (oral, unspecified); greater than 2000 mg/kg with Rattus norvegicus (acute, oral, mortality). Besides, the NOAEL (commonly the highest dose or exposure tested at which no adverse effect was seen) in the data set with Canidae (chronic, duration: 1 years, clinical chemistry) is 3 mg/kg-day; with Canidae (subchronic, duration: 90 days, body weight), 30 mg/kg-day; in the data set on Canidae (subchronic, duration: 90 days, clinical chemistry), 3 mg/kg-day; with Rattus norvegicus (developmental, development), greater than 742 mg/kg-day. For the same compound, the NOEL was 2000 mg/kg-day in the data set with Colinus virginianus (short-term, mortality) and 1.33 mg/kg in the data set on Pontoscolex corethrurus. Further, the LR50 in the data set on Aphidius rhopalosiphi is 34.1 g/ha; in the data set on Typhlodromus pyri, 122 g/ha.
